Assay results as given in US20240041042A1, “1-(PYRIDYL)-5-AZINYLPYRAZOLE DERIVATIVES, AND THEIR USE FOR CONTROL OF UNDESIRED PLANT GROWTH” (Bayer Aktiengesellschaft, priority 2020, published 2024).

Key:
Format in all cases: in vivo
Lolium rigidum (LOLRI) [1] = test: Pre-emergence herbicidal action against LOLRI
Outline: (§1)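 Herbicide applied to soil before seedling emergence, at 600 l/ha spray volume with 0.5% additive and rates up to 320 g/ha. Evaluation: visual percentage effect, about 3 weeks later, greenhouse-grown pots compared with untreated ones.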

[2] = tested on: Amaranthus retroflexus (AMARE); test: Pre-emergence herbicidal action against AMARE; conditions: visual scoring after about 3 weeks vs untreated controls
Outline: as §1

Setaria viridis (SETVI) [3] = test: Post-emergence herbicidal action against SETVI
Outline: (§2)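 Rates were 320 g/ha or below, applied as aqueous WP/EC spray with 0.5% additive (600 l/ha) onto one-leaf-stage plants. About 3 weeks later in the greenhouse, damage was scored visually against untreated plants on a 0–100% scale, where 100% means plants died.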

[4] = tested on: Polygonum convolvulus (POLCO); test: Pre-emergence herbicidal action against POLCO
Outline: as §1

Setaria viridis (SETVI) [5] = test: Pre-emergence herbicidal action against SETVI
Outline: as §1

[6] = tested on: Verconica persica (VERPE); test: Pre-emergence herbicidal action against VERPE
Outline: as §1

[7] = tested on: Alopecurus myosuroides (ALOMY); test: Pre-emergence herbicidal action against ALOMY; conditions: scored visually after about 3 weeks, 100% = plants have died
Outline: as §1

Avena fatua (AVEFA) [8] = test: Pre-emergence herbicidal action against AVEFA; conditions: visual scoring after about 3 weeks vs untreated controls
Outline: as §1

[9] = tested on: Echinochloa crus-galli (ECHCG); test: Pre-emergence herbicidal action against ECHCG
Outline: as §1

Viola tricolor (VIOTR) [10] = test: Post-emergence herbicidal action against VIOTR
Outline: as §2

[11] = tested on: Alopecurus myosuroides (ALOMY); test: Post-emergence herbicidal action against ALOMY; conditions: visual rating about 3 weeks after treatment vs untreated controls (100% = plants have died, 0% = like control plants)
Outline: as §2

Avena fatua (AVEFA) [12] = test: Post-emergence herbicidal action against AVEFA; conditions: visual rating about 3 weeks after treatment
Outline: as §2

[13] = tested on: Matricaria inodora (MATIN); test: Pre-emergence herbicidal action against MATIN; conditions: dosage 320 g/ha
Outline: as §1

[14] = tested on: Verconica persica (VERPE); test: Post-emergence herbicidal action against VERPE
Outline: as §2

Zea mays (ZEAMX) = conditions: crop plant compatibility, 80 g/ha, effect vs untreated controls
Outline: (§3)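 Foliar application at the one-leaf stage: WP/EC formulation, 0.5% additive, 600 l/ha water. Greenhouse-grown in sandy loam. Endpoint is visual % injury relative to untreated controls at about 3 weeks.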

[15] = tested on: Pharbitis purpurea (PHBPU); test: Pre-emergence herbicidal action against PHBPU; conditions: dosage 320 g/ha
Outline: as §1

Viola tricolor (VIOTR) [16] = test: Pre-emergence herbicidal action against VIOTR
Outline: as §1

[17] = tested on: Echinochloa crus-galli (ECHCG); test: Post-emergence herbicidal action against ECHCG
Outline: as §2

[18] = tested on: Matricaria inodora (MATIN); test: Post-emergence herbicidal action against MATIN
Procedure: Seeds of monocotyledonous and dicotyledonous weeds and crop plants are placed in sandy loam in plastic or organic planting pots, covered with soil and cultivated in a greenhouse under controlled growth conditions. 2 to 3 weeks after sowing, the test plants are treated at the one-leaf stage. The compounds of the invention, formulated in the form of wettable powders (WP) or as emulsion concentrates (EC), are then sprayed onto the green parts of the plants as aqueous suspension or emulsion with addition of 0.5% additive at a water application rate of 600 l/ha (converted). After the test plants have been kept in the greenhouse under optimum growth conditions for about 3 weeks, the activity of the preparations is rated visually in comparison to untreated controls. For example, 100% activity=the plants have died, 0% activity=like control plants.
Tables B1 to B13 below show the effects of selected compounds of the general formula (I) according to Table 1 on various harmful plants and at an application rate corresponding to 320 g/ha or lower, which were obtained by the experimental procedure mentioned above. The appendices “a”, “b” and “c” give differentiation by dosage used with otherwise the same harmful plants tested.

[19] = tested on: Pharbitis purpurea (PHBPU); test: Post-emergence herbicidal action against PHBPU
Outline: as §2

Lolium rigidum (LOLRI) [20] = test: Post-emergence herbicidal action against LOLRI
Outline: as §2

[21] = tested on: Polygonum convolvulus (POLCO); test: Post-emergence herbicidal action against POLCO
Outline: as §2

[22] = tested on: Amaranthus retroflexus (AMARE); test: Post-emergence herbicidal action against AMARE
Outline: as §2

Oryza sativa (ORYSA) = conditions: crop plant compatibility, 80 g/ha, effect in comparison to untreated controls
Outline: as §3

SMILES | Pre-emergence action against LOLRI in % (Lolium rigidum (LOLRI) [1]; dosage 320 g/ha) | Pre-emergence action against AMARE in % ([2]; 80 g/ha) | Pre-emergence action against AMARE in % ([2]; 320 g/ha) | Post-emergence action against SETVI in % (Setaria viridis (SETVI) [3]; dosage 320 g/ha) | Pre-emergence action against POLCO in % ([4]; dosage 320 g/ha) | Pre-emergence action against SETVI in % (Setaria viridis (SETVI) [5]; dosage 320 g/ha) | Pre-emergence action against VERPE in % ([6]; dosage 320 g/ha) | Pre-emergence action against ALOMY ([7]; 80 g/ha) | Pre-emergence action against ALOMY ([7]; 320 g/ha) | Pre-emergence action against AVEFA in % (Avena fatua (AVEFA) [8]; 320 g/ha) | Pre-emergence action against ECHCG in % ([9]; dosage 80 g/ha) | Pre-emergence action against ECHCG in % ([9]; dosage 320 g/ha) | Post-emergence action against ALOMY in % ([11]; 80 g/ha) | Post-emergence action against ALOMY in % ([11]; 320 g/ha) | Post-emergence action against AVEFA in % (Avena fatua (AVEFA) [12]; 80 g/ha) | Post-emergence action against AVEFA in % (Avena fatua (AVEFA) [12]; 320 g/ha) | Pre-emergence action against MATIN in % [13] | Post-emergence action against VERPE in % ([14]; 320 g/ha, VERPE) | Post-emergence action against VERPE in % ([14]; dosage 80 g/ha) | Pre-emergence action against PHBPU in % [15] | other results
Cc1cccnc1-n1nc(OCC(=O)O)c(Cl)c1-c1ccc(F)nc1 [Example I-323] | 100% | 100% | 100% | 90% | 100% | 100% | 100% | 100% | 100% | 100% | 90% | 100% | 100% | 100% | 90% | 90% | 100% | 90% | 90% | 90% | Pre-emergence action against LOLRI in % (Lolium rigidum (LOLRI) [1]; dosage 80 g/ha): 100%; Pre-emergence action against AVEFA in % (Avena fatua (AVEFA) [8]; 80 g/ha): 90%; Post-emergence action against VIOTR in % (Viola tricolor (VIOTR) [10]; 80 g/ha): 90%; Post-emergence action against VIOTR in % (Viola tricolor (VIOTR) [10]; 320 g/ha): 90%; Post-emergence action against ZEAMX in % (Zea mays (ZEAMX)): 0%; Pre-emergence action against VIOTR in % (Viola tricolor (VIOTR) [16]; 320 g/ha, Viola tricolor): 100%; Pre-emergence action against VIOTR in % (Viola tricolor (VIOTR) [16]; dosage 80 g/ha): 100%; Post-emergence action against ECHCG in % ([17]; dosage 80 g/ha): 90%; Post-emergence action against ECHCG in % ([17]; dosage 320 g/ha): 90%; Post-emergence action against MATIN in % ([18]; dosage 320 g/ha): 90%; Post-emergence action against PHBPU in % ([19]; dosage 320 g/ha): 80%; Post-emergence action against LOLRI in % (Lolium rigidum (LOLRI) [20]; dosage 80 g/ha): 90%; Post-emergence action against LOLRI in % (Lolium rigidum (LOLRI) [20]; dosage 320 g/ha): 90%
COC(=O)[C@H](C)NC(=O)COc1nn(-c2ccccn2)c(-c2ccc(F)nc2)c1Cl [Example I-87] | 100% | 90% | 100% | 80% | 90% | 100% | 90% | 90% | 100% | 90% | 100% | 100% | 80% | 90% | 80% | 90% | 90% | 90% | 80% | 90% | Post-emergence action against SETVI in % (Setaria viridis (SETVI) [3]; dosage 80 g/ha): 80%; Pre-emergence action against POLCO in % ([4]; dosage 80 g/ha): 80%; Pre-emergence action against SETVI in % (Setaria viridis (SETVI) [5]; dosage 80 g/ha): 90%; Pre-emergence action against VERPE in % ([6]; dosage 80 g/ha): 80%; Post-emergence action against POLCO in % ([21]; dosage 80 g/ha): 80%; Post-emergence action against POLCO in % ([21]; dosage 320 g/ha): 80%; Pre-emergence action against AVEFA in % (Avena fatua (AVEFA) [8]; 80 g/ha): 80%; Post-emergence action against AMARE in % ([22]; 80 g/ha, visual rating about 3 weeks after treatment vs untreated controls (100% = plants have died, 0% = like control plants)): 80%; Post-emergence action against AMARE in % ([22]; 320 g/ha, visual rating about 3 weeks after treatment): 80%; Post-emergence action against ORYSA in % (Oryza sativa (ORYSA)): 0%; Pre-emergence action against VIOTR in % (Viola tricolor (VIOTR) [16]; 320 g/ha, Viola tricolor): 80%; Post-emergence action against ECHCG in % ([17]; dosage 320 g/ha): 80%; Post-emergence action against MATIN in % ([18]; dosage 320 g/ha): 80%; Post-emergence action against PHBPU in % ([19]; dosage 320 g/ha): 90%; Post-emergence action against LOLRI in % (Lolium rigidum (LOLRI) [20]; dosage 320 g/ha): 80%
CCOC(=O)COc1nn(-c2ncccc2C)c(-c2ccc(F)nc2)c1Cl [Example I-316] | 100% | 100% | 100% | 90% | 100% | 100% | 100% | 90% | 100% | 100% | 100% | 100% | 100% | 100% | 90% | 100% | 100% | 90% | 90% | 90% | Pre-emergence action against LOLRI in % (Lolium rigidum (LOLRI) [1]; dosage 80 g/ha): 100%; Post-emergence action against SETVI in % (Setaria viridis (SETVI) [3]; dosage 80 g/ha): 90%; Pre-emergence action against POLCO in % ([4]; dosage 80 g/ha): 100%; Pre-emergence action against SETVI in % (Setaria viridis (SETVI) [5]; dosage 80 g/ha): 100%; Post-emergence action against VIOTR in % (Viola tricolor (VIOTR) [10]; 80 g/ha): 90%; Post-emergence action against VIOTR in % (Viola tricolor (VIOTR) [10]; 320 g/ha): 90%; Post-emergence action against ZEAMX in % (Zea mays (ZEAMX)): 0%; Pre-emergence action against VIOTR in % (Viola tricolor (VIOTR) [16]; 320 g/ha, Viola tricolor): 100%; Pre-emergence action against VIOTR in % (Viola tricolor (VIOTR) [16]; dosage 80 g/ha): 100%; Post-emergence action against ECHCG in % ([17]; dosage 80 g/ha): 90%; Post-emergence action against ECHCG in % ([17]; dosage 320 g/ha): 90%; Post-emergence action against MATIN in % ([18]; dosage 80 g/ha): 80%; Post-emergence action against MATIN in % ([18]; dosage 320 g/ha): 90%; Post-emergence action against PHBPU in % ([19]; dosage 80 g/ha): 90%; Post-emergence action against PHBPU in % ([19]; dosage 320 g/ha): 90%; Post-emergence action against LOLRI in % (Lolium rigidum (LOLRI) [20]; dosage 80 g/ha): 100%; Post-emergence action against LOLRI in % (Lolium rigidum (LOLRI) [20]; dosage 320 g/ha): 100%
